In brackets after ≈: the same amount, converted by molar mass.
Key:
Format in all cases: cell-based
[1] = system: Endothelial cell line HUVEC; assay: Inhibitory activity on cells, CellTiter-Glo viability, HUVEC; conditions: Homo sapiens, 72 hours treatment
In short: (§1)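 HUVEC seeded at 2000, UM-UC-3 and RM-1 at 3000, LNCaP at 5000 cells/well, each in its own medium, 24 h before dosing. Compounds: 8-point 2.5-fold dilutions from 100 μmol, 72 h at 37 °C, 5% CO2. CellTiter-Glo luminescence; IC50 from growth-inhibition curves.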

[2] = system: Bladder cancer cell line UM-UC-3; assay: Inhibitory activity on cancer cells, CellTiter-Glo viability, UM-UC-3; conditions: Homo sapiens, UMUC3, 72 hours treatment
In short: as §1

[3] = system: Prostate cancer cell line LNcaP; assay: Inhibitory activity on cancer cells, CellTiter-Glo viability, LNcaP; conditions: Homo sapiens, 72 hours treatment
In short: as §1

[4] = system: Mouse prostate cancer cell line RM1; assay: Inhibitory activity on cancer cells, CellTiter-Glo viability, RM1; conditions: 72 hours treatment
Method: HUVEC (purchased from Allcells Biological Technology (Shanghai) Co., Ltd.); UM-UC-3 (ATCC); LNCaP (ATCC); RM-1 (purchased from Nanjing Cobioer Biosciences Co., Ltd.) (1) On the first day, the cells were seeded in a 96-well plate, and the previous medium was poured off. 5 mL of DPBS was added to wash the cells, and then removed by a pipette and discarded. Then, 1 mL of trypsin (0.25%) was added, and the plate was placed in a cell culture incubator at 37 °C, 5% CO2 for digestion, and taken out after about 2 to 5 minutes. New corresponding medium was added, and pipetted to resuspend the cells evenly, and the cells were then counted with an automated cell counter. Regarding HUVEC, the medium used was endothelial cell complete medium; regarding UM-UC-3, the medium used was 89 v % EMEM+10 v % fetal bovine serum+1 v % penicillin-streptomycin double anti-body; regarding LNcaP, the medium used was 89 v % RPM11640+10 v % fetal bovine serum+1 v % penicillin-streptomycin double anti-body; and regarding RM1, the medium used was 89 v % DMEM+10 v % fetal bovine serum+1 v % penicillin-streptomycin double anti-body. (2) HUVEC cells were seeded in columns 1 to 11 of a 96-well plate (Corning, Cat. No. 3610) at a density of 2000 cells per well in 100 μL of medium, and the medium free of cell was added to the wells of column 12. The other three types of cells were also seeded, wherein UM-UC-3 and RM-1 cells were seeded at a density of 3000 cells per well, and LNCap cells were seeded at a density of 5000 cells per well. Then, the plate was placed in an incubator at 37° C., 5% CO2 for 24 hours. (3) On the second day, the compounds of the present invention and the reference drug nitroxoline (obtained according to the preparation method disclosed in the prior art) were diluted in gradient (2.5 folds, started at 100 μmol) to obtain 8 dose points (there were a total of 8 columns of wells; the first column of wells had the highest concentration, the concentration decreased in turn, and the last column of wells had the lowest concentration). 10 μL of the compound diluted in gradient was added to the 100 μL of cells in column 1 to column 10 with an 8-channel pipette. 10 μL of the corresponding medium containing 0.33 v % DMSO was added to column 11 and column 12. The plate was incubated in an incubator at 37° C., 5% CO2 for 72 hours (note: column 11 was used as MAX well with cells and no compounds; and column 12 was used as MIN well with no cells and no compounds). (4) After treating with the compounds of the present invention for 72 hours, the cell viability detection reagents in the above CellTiter-Glo® assay kit were added to the 96-well plate at 50 μL per well according to the instructions. The plate was shaken on a shaker in the dark for 5 to 10 minutes, and then the cell activity was determined by a multifunctional microplate reader. Finally, the growth inhibition of the compounds of the present invention on the cells was plotted by XLFIT 5.3 software, and the IC50 values of the compounds of the present invention were calculated.

[5] = system: Escherichia coli (carbapenem-resistant clinical isolate; ATCC25922); assay: MIC by micro broth dilution (CLSI), Escherichia coli; conditions: Escherichia coli; for MIC50 / MIC90: ATCC25922, Clinical strain; for MIC50: read-out: MIC50; for MIC90: read-out: MIC90; for MIC: Standard strain ATCC25922, read-out: MIC
In short: (§2)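 CLSI broth microdilution in cation-adjusted Mueller-Hinton broth, compounds in DMSO at 128 to 0.06 mg/L. Inoculum 10^5 CFU/mL from 0.5 McFarland suspensions diluted 100-fold; 35±2 °C, 20 h in air. Clinical isolates plus ATCC/NCTC quality-control strains; interpretation per CLSI 2019 M100.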

[6] = system: Acinetobacter baumannii (carbapenem-resistant clinical isolates; ATCC19606); assay: MIC by micro broth dilution (CLSI), Acinetobacter baumannii; conditions: Acinetobacter baumannii; for MIC50 / MIC90: ATCC19606, Clinical strain; for MIC50: read-out: MIC50; for MIC90: read-out: MIC90; for MIC: Standard strain ATCC19606, read-out: MIC
In short: as §2

[7] = system: Staphylococcus aureus (methicillin-resistant and sensitive clinical isolates; ATCC29213); assay: MIC by micro broth dilution (CLSI), Staphylococcus aureus; conditions: for MIC50 / MIC90: Clinical strain; for MIC50: read-out: MIC50; for MIC90: read-out: MIC90; for MIC: Standard strain ATCC29213, read-out: MIC
In short: as §2

| Structure (SMILES) | IC50 [2] | IC50 [3] | IC50 [4] | MIC50 [5] | MIC90 [5] | MIC [5] | MIC50 [6] | MIC90 [6] | MIC [6] | MIC50 [7] | MIC90 [7] | MIC [7] | IC50 [1] |
| --- | --- | --- | --- | --- | --- | --- | --- | --- | --- | --- | --- | --- | --- |
| O=[N+]([O-])c1cc(Cl)c2c(N3CCCC3)ccnc2c1O [Example 42, 5-Chloro-7-nitro-4-(pyrrolidin-1-yl)quinolin-8-ol] | 42 µM | 17.4 µM | 25.4 µM | > 128 µg/mL | > 128 µg/mL | 128 µg/mL (≈ 436 µM) | > 128 µg/mL | > 128 µg/mL | 128 µg/mL (≈ 436 µM) | 32 µg/mL (≈ 109 µM) | 32 µg/mL (≈ 109 µM) | 32 µg/mL (≈ 109 µM) | 33 µM |
| Cl.O=[N+]([O-])c1cc(Cl)c2c(OCc3ccccc3)ccnc2c1O [Example 67, 4-(benzyloxy)-5-chloro-7-nitroquinolin-8-ol hydrochloride] | 9.28 µM | 8.68 µM | 13.2 µM | > 128 µg/mL | > 128 µg/mL | > 128 µg/mL | > 128 µg/mL | > 128 µg/mL | > 128 µg/mL | 1 µg/mL | 64 µg/mL | 2 µg/mL | 3.23 µM |
| COC(=O)N1CCN(c2ccnc3c(O)c([N+](=O)[O-])ccc23)CC1 [Example 26] | 11.4 µM | 11.9 µM | 12.5 µM | > 128 µg/mL | > 128 µg/mL | 128 µg/mL (≈ 385 µM) | 64 µg/mL (≈ 193 µM) | > 128 µg/mL | > 128 µg/mL | 16 µg/mL (≈ 48.1 µM) | 64 µg/mL (≈ 193 µM) | 128 µg/mL (≈ 385 µM) | 15.1 µM |
| CN(C)CCOc1ccnc2c(O)c([N+](=O)[O-])ccc12 [Example 24, 4-(2-(Dimethylamino)ethoxy)-7-nitroquinolin-8-ol] | 48 µM | 49.6 µM | 53.6 µM | 128 µg/mL (≈ 462 µM) | 128 µg/mL (≈ 462 µM) | 128 µg/mL (≈ 462 µM) | 128 µg/mL (≈ 462 µM) | > 128 µg/mL | 128 µg/mL (≈ 462 µM) | 128 µg/mL (≈ 462 µM) | 128 µg/mL (≈ 462 µM) | 128 µg/mL (≈ 462 µM) | > 100 µM |
| O=C1CCN(c2ccnc3c(O)c([N+](=O)[O-])cc(Cl)c23)CC1 [Example 56, 1-(5-Chloro-8-hydroxy-7-nitroquinolin-4-yl)piperidin-4-one] | 52.8 µM | 47.6 µM | 68.5 µM | > 128 µg/mL | > 128 µg/mL | > 128 µg/mL | > 128 µg/mL | > 128 µg/mL | > 128 µg/mL | 64 µg/mL (≈ 199 µM) | 64 µg/mL (≈ 199 µM) | 128 µg/mL (≈ 398 µM) | 32.1 µM |
| COC(=O)[C@@H]1CCCN1c1ccnc2c(O)c([N+](=O)[O-])ccc12 [Example 28, Methyl (8-hydroxy-7-nitroquinolin-4-yl)-L-prolinate] | 42.3 µM | 33 µM | 17 µM | > 128 µg/mL | > 128 µg/mL | > 128 µg/mL | 64 µg/mL (≈ 202 µM) | > 128 µg/mL | > 128 µg/mL | 32 µg/mL (≈ 101 µM) | 32 µg/mL (≈ 101 µM) | > 128 µg/mL | 17.3 µM |
| O=[N+]([O-])c1cc(Cl)c2c(N3CCCCC3)ccnc2c1O [Example 36, 5-Chloro-7-nitro-4-piperidinylquinolin-8-ol] | 2.42 µM | 0.96 µM | 2.81 µM | > 128 µg/mL | > 128 µg/mL | > 128 µg/mL | > 128 µg/mL | > 128 µg/mL | > 128 µg/mL | 8 µg/mL (≈ 26 µM) | 8 µg/mL (≈ 26 µM) | 8 µg/mL (≈ 26 µM) | 1.48 µM |
| CS(=O)(=O)N1CCN(c2ccnc3c(O)c([N+](=O)[O-])cc(Cl)c23)CC1 [Example 48, 5-Chloro-4-(4-(methylsulfonyl)piperazin-1-yl)-7-nitroquinolin-8-ol] | 10.6 µM | 10.6 µM | 14.4 µM | > 128 µg/mL | > 128 µg/mL | > 128 µg/mL | > 128 µg/mL | > 128 µg/mL | > 128 µg/mL | 64 µg/mL (≈ 165 µM) | 64 µg/mL (≈ 165 µM) | 64 µg/mL (≈ 165 µM) | 6.58 µM |
| CC(C)C(=O)N1CCN(c2ccnc3c(O)c([N+](=O)[O-])cc(Cl)c23)CC1 [Example 50, 4-(5-Chloro-8-hydroxy-7-nitroquinolin-4-yl)-1-(2,2-dimethylacetyl)piperazine] | 3.4 µM | 2.86 µM | 4.29 µM | > 128 µg/mL | > 128 µg/mL | > 128 µg/mL | > 128 µg/mL | > 128 µg/mL | > 128 µg/mL | > 128 µg/mL | > 128 µg/mL | > 128 µg/mL | 2.94 µM |

Now those with a lower IC50 [2], led by results:

| IC50 [2] | IC50 [3] | IC50 [4] | MIC50 [5] | MIC90 [5] | MIC [5] | MIC50 [6] | MIC90 [6] | MIC [6] | MIC50 [7] | MIC90 [7] | MIC [7] | Structure (SMILES) | IC50 [1] |
| --- | --- | --- | --- | --- | --- | --- | --- | --- | --- | --- | --- | --- | --- |
| 2.23 µM | 0.25 µM | 2.88 µM | > 128 µg/mL | > 128 µg/mL | > 128 µg/mL | > 128 µg/mL | > 128 µg/mL | > 128 µg/mL | 4 µg/mL (≈ 11.6 µM) | 4 µg/mL (≈ 11.6 µM) | 4 µg/mL (≈ 11.6 µM) | O=[N+]([O-])c1cc(Cl)c2c(N3CCC(F)(F)CC3)ccnc2c1O [Example 55, 5-Chloro-4-(4,4-difluoropiperidin-1-yl)-7-nitroquinolin-8-ol] | 0.8 µM |
| 1.57 µM | 0.53 µM | 7.64 µM | 128 µg/mL (≈ 484 µM) | 128 µg/mL (≈ 484 µM) | > 128 µg/mL | 128 µg/mL (≈ 484 µM) | 128 µg/mL (≈ 484 µM) | 4 µg/mL (≈ 15.1 µM) | 0.25 µg/mL (≈ 0.945 µM) | 0.5 µg/mL (≈ 1.89 µM) | 0.5 µg/mL (≈ 1.89 µM) | O=[N+]([O-])c1ccc2c(Cl)c(C3CC3)cnc2c1O [Example 74, 4-chloro-3-cyclopropyl-7-nitroquinolin-8-ol] | 1.28 µM |
| 1.42 µM | 0.25 µM | 1.62 µM | 32 µg/mL | 64 µg/mL | 64 µg/mL | 128 µg/mL | > 128 µg/mL | 64 µg/mL | 16 µg/mL | 16 µg/mL | 16 µg/mL | COCCCOC1CCN(c2ccnc3c(O)c([N+](=O)[O-])cc(Cl)c23)CC1.Cl.Cl [Example 54, 5-chloro-4-(4-(3-methoxypropoxy)piperidin-1-yl)-7-nitroquinolin-8-ol dihydrochloride] | 0.5 µM |
| 0.96 µM | 0.88 µM | 1.86 µM | > 128 µg/mL | > 128 µg/mL | > 128 µg/mL | > 128 µg/mL | > 128 µg/mL | > 128 µg/mL | 32 µg/mL (≈ 84.3 µM) | 64 µg/mL (≈ 169 µM) | 32 µg/mL (≈ 84.3 µM) | CCOC(=O)C1CCN(c2ccnc3c(O)c([N+](=O)[O-])cc(Cl)c23)CC1 [Example 46, Ethyl 1-(5-chloro-8-hydroxy-7-nitroquinolin-4-yl)piperidine-4-carboxylate] | 0.56 µM |
